# From ChEMBL document CHEMBL5291721, “A preclinical secondary pharmacology resource illuminates target-adverse drug reaction associations of marketed drugs” (Nat Commun, 2023)
# How the values were obtained:
# [1] = biological target: Growth hormone secretagogue receptor type 1 (Homo sapiens, UniProt Q92847)
# [2] = biological target: T1, Gastrin/cholecystokinin type B receptor (Homo sapiens, UniProt P32239)
# T1 sequence (P32239 whole entry): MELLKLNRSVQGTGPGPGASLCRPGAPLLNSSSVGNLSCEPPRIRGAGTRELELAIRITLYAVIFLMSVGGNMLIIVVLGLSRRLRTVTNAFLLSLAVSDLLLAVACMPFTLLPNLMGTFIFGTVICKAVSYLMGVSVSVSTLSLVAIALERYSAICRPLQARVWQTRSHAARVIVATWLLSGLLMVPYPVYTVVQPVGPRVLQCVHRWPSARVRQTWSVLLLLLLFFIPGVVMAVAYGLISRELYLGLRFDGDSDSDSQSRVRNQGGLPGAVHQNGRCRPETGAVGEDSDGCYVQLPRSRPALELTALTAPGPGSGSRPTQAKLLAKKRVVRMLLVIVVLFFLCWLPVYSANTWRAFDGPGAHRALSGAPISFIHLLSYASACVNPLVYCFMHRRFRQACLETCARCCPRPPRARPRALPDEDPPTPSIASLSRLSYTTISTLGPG
# Mu-type opioid receptor = Mu-type opioid receptor (Homo sapiens, UniProt P35372); assay: biochemical; assay type: functional
# [3] = biological target: T2, Alpha-2A adrenergic receptor (Homo sapiens, UniProt P08913); assay type: functional, cell-based
# T2 sequence (P08913 whole entry): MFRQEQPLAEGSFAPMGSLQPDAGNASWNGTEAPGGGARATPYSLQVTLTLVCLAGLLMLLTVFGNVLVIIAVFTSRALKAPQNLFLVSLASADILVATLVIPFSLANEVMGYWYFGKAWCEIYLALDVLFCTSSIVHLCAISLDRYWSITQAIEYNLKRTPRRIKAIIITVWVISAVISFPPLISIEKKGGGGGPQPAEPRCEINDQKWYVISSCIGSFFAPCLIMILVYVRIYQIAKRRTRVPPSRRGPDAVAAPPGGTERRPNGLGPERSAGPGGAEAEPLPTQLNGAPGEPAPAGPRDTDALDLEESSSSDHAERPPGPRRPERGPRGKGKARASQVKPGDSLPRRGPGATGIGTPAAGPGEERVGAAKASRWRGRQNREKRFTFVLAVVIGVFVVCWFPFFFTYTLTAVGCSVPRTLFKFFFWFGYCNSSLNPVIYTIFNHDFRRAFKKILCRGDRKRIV
# [4] = biological target: Muscarinic acetylcholine receptor M3 (Homo sapiens, UniProt P20309)
# Histamine H2 receptor = Histamine H2 receptor (Homo sapiens, UniProt P25021); assay type: functional, cell-based
# D(1A) dopamine receptor = D(1A) dopamine receptor (Homo sapiens, UniProt P21728); assay type: functional, cell-based
# [5] = biological target: Delta-type opioid receptor (Homo sapiens, UniProt P41143)
# [6] = biological target: T3, Type-1 angiotensin II receptor (Homo sapiens, UniProt P30556)
# T3 sequence (P30556 whole entry): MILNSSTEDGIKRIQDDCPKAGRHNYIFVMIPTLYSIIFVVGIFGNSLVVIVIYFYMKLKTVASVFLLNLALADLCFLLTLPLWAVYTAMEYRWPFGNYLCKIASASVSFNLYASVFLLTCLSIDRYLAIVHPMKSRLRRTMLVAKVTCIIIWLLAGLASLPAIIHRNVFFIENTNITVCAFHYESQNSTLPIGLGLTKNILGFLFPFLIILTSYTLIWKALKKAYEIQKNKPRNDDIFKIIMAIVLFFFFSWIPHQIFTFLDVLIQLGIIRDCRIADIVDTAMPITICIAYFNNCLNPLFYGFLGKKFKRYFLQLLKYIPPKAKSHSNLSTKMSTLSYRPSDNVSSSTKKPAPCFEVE
# [7] = biological target: cGMP-inhibited 3',5'-cyclic phosphodiesterase 3A (Homo sapiens, UniProt Q14432); assay type: functional
# [8] = biological target: T4, Muscarinic acetylcholine receptor M2 (Homo sapiens, UniProt P08172); assay type: functional, cell-based
# T4 sequence (P08172 whole entry): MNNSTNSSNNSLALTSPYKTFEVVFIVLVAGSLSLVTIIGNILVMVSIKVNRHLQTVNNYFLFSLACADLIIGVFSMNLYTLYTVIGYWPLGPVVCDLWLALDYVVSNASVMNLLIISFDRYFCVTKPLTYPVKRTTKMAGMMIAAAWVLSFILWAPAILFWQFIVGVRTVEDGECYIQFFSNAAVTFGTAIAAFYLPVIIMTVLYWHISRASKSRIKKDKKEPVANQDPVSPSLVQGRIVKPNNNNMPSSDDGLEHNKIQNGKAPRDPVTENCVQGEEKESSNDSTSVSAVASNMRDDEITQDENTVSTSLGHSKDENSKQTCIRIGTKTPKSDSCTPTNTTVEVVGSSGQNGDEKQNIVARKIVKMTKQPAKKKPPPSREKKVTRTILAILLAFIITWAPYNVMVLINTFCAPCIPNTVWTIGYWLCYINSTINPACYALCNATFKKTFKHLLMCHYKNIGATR
# [9] = biological target: Neuronal acetylcholine receptor subunit alpha-4 (Homo sapiens, UniProt P43681)
# Histamine H1 receptor = Histamine H1 receptor (Homo sapiens, UniProt P35367)
# [10] = biological target: 5-hydroxytryptamine receptor 2B (Homo sapiens, UniProt P41595); assay type: functional, cell-based
# [11] = biological target: T5, 5-hydroxytryptamine receptor 1A (Homo sapiens, UniProt P08908); assay type: functional, cell-based
# T5 sequence (P08908 whole entry): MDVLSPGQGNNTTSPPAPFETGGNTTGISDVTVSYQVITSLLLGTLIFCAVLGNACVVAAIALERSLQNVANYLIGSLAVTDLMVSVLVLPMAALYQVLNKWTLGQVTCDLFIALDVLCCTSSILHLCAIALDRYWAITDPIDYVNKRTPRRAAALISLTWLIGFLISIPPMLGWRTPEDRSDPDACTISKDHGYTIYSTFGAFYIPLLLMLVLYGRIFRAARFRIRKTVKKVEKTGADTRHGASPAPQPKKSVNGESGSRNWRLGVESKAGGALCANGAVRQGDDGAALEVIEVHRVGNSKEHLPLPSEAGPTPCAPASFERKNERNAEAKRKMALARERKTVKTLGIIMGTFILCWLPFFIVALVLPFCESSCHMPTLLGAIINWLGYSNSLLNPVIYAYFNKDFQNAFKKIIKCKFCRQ
# [12] = biological target: Gamma-aminobutyric acid receptor subunit alpha-1 (Rattus norvegicus, UniProt P62813); assay type: functional
# [13] = biological target: Sodium-dependent serotonin transporter (Homo sapiens, UniProt P31645)
# Also: assay procedure not described here.
# Chain of Sodium-dependent serotonin transporter (P31645 whole entry): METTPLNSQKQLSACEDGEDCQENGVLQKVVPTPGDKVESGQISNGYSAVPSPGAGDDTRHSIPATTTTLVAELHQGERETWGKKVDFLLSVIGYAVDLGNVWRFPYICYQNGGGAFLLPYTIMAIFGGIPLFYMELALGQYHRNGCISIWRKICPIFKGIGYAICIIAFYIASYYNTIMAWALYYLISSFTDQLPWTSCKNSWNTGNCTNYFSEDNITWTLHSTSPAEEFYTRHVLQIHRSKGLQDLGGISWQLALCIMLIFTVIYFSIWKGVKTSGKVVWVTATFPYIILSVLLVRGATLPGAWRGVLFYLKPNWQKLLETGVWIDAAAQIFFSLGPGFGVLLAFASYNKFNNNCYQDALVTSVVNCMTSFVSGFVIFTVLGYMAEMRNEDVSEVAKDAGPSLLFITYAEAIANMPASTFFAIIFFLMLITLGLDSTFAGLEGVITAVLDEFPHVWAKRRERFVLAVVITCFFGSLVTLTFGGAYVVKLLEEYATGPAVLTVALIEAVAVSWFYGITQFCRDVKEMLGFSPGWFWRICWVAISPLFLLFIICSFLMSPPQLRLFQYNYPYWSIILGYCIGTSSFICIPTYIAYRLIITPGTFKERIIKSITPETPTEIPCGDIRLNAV
# Chain of 5-hydroxytryptamine receptor 2B (P41595 whole entry): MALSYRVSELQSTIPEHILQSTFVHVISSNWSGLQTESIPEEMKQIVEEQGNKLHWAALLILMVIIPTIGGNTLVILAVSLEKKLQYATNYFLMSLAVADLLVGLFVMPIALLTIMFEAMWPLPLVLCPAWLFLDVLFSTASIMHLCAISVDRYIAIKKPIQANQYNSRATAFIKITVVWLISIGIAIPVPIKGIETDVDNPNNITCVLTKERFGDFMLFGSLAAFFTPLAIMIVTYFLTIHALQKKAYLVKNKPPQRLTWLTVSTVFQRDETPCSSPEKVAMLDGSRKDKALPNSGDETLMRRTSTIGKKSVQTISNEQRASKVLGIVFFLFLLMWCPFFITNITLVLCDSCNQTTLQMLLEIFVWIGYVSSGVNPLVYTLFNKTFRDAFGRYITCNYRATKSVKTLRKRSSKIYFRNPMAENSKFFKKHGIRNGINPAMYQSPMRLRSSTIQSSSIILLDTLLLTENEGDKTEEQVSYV
# Chain of Delta-type opioid receptor (P41143 whole entry): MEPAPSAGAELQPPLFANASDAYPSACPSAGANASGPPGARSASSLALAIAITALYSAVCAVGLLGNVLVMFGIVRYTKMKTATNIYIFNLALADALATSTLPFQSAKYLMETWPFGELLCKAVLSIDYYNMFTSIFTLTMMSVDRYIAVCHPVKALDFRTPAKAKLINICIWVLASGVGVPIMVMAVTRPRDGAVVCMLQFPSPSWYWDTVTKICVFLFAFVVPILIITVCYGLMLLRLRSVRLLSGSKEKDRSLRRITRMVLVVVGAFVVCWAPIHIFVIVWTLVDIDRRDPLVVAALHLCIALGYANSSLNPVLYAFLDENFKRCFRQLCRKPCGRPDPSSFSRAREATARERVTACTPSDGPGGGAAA
# Chain of D(1A) dopamine receptor (P21728 whole entry): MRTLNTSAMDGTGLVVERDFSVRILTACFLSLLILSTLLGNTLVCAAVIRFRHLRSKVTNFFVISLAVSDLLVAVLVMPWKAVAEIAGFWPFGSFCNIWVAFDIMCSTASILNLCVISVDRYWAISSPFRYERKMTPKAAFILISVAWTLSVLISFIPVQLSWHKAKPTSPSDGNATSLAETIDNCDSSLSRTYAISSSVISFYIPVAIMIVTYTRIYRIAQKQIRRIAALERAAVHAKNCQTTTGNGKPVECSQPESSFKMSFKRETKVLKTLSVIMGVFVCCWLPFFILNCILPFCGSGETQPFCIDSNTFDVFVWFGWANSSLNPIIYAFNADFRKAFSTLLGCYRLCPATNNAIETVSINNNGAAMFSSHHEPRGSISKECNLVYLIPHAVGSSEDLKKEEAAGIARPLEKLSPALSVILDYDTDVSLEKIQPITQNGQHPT
# Chain of cGMP-inhibited 3',5'-cyclic phosphodiesterase 3A (Q14432 whole entry): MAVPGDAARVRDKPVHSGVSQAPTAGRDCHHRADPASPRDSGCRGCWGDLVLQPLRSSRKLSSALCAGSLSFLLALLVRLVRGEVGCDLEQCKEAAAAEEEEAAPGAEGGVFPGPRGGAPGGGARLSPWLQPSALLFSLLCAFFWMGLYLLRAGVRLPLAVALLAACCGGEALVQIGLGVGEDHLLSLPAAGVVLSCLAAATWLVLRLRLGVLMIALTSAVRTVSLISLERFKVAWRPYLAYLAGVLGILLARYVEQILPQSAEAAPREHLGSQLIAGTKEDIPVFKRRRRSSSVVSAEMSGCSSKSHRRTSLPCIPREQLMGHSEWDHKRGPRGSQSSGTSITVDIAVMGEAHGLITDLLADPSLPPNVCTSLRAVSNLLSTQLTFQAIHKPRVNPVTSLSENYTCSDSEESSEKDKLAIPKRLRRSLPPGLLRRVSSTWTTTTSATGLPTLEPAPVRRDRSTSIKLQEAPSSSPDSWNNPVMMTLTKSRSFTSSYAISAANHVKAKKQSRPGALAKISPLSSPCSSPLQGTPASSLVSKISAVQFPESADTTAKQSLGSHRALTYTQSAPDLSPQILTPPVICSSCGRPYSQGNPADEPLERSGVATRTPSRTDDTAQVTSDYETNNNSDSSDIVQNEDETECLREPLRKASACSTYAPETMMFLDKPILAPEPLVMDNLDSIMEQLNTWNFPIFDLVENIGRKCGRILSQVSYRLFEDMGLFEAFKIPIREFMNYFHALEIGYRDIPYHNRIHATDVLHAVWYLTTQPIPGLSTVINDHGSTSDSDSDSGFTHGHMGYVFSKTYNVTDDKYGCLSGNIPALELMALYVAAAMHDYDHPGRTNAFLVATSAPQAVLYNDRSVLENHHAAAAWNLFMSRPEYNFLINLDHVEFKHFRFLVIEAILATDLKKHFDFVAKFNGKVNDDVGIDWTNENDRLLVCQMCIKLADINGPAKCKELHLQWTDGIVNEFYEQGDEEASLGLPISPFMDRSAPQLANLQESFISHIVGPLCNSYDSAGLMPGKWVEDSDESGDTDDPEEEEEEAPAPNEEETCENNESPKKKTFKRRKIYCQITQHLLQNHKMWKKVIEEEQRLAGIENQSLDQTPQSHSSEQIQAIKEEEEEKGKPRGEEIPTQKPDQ
# Chain of Growth hormone secretagogue receptor type 1 (Q92847 whole entry): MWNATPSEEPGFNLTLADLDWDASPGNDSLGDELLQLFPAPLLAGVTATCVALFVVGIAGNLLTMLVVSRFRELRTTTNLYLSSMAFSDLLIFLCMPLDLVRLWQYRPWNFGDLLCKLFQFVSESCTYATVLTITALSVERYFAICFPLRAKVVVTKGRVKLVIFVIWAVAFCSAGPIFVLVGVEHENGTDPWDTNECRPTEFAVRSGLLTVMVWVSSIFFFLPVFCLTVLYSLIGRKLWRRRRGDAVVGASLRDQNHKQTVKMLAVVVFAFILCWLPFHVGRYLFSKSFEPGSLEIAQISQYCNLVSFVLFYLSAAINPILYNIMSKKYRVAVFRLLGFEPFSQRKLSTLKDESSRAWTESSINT
# Chain of Neuronal acetylcholine receptor subunit alpha-4 (P43681 whole entry): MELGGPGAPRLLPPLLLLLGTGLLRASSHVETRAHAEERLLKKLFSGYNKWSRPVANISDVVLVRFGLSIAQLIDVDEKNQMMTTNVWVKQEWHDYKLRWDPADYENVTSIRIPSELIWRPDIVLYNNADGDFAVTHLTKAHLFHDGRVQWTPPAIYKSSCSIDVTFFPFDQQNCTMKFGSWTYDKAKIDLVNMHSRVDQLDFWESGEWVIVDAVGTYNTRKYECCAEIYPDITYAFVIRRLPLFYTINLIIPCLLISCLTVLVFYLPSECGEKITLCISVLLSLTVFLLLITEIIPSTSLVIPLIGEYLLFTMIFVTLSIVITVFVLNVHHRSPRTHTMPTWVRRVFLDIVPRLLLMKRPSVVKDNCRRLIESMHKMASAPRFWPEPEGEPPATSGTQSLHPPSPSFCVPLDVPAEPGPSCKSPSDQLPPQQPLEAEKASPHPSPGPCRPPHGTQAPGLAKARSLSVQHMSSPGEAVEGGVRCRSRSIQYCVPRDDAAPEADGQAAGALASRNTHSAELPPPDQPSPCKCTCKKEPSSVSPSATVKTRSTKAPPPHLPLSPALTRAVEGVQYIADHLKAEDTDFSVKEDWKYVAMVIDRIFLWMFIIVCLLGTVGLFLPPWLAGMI
# Chain of Muscarinic acetylcholine receptor M3 (P20309 whole entry): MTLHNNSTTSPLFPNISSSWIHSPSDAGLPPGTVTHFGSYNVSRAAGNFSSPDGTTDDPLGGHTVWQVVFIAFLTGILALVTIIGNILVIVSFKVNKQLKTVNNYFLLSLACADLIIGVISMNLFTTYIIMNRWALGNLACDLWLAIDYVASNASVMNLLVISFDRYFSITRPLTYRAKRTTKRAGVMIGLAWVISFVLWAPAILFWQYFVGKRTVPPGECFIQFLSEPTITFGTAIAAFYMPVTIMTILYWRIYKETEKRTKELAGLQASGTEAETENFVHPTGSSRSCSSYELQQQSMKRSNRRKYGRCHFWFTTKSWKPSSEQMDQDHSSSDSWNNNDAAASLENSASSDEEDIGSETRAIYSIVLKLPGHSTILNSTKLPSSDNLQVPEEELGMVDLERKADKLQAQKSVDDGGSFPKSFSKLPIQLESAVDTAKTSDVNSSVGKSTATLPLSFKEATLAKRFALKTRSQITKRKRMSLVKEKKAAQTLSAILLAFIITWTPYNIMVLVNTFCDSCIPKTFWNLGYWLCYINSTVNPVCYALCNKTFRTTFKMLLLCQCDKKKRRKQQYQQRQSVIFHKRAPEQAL
# Chain of Histamine H2 receptor (P25021 whole entry): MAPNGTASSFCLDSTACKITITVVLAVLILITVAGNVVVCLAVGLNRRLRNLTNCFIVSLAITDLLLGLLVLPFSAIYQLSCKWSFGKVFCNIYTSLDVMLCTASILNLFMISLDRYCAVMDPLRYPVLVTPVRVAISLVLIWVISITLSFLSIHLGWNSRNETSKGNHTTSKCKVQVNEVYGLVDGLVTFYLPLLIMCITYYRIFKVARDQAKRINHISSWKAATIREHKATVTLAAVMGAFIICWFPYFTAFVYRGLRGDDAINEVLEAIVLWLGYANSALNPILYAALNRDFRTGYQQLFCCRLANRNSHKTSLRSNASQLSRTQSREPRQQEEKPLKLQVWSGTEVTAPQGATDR
Compound,AC50 [1] [µM],AC50 [2] [µM],AC50 (Mu-type opioid receptor) [µM],AC50 [3] [µM],AC50 [4] [µM],AC50 (Histamine H2 receptor) [µM],AC50 (D(1A) dopamine receptor) [µM],AC50 [5] [µM],AC50 [6] [µM],AC50 [7] [µM],AC50 [8] [µM],AC50 [9] [µM],AC50 (Histamine H1 receptor) [µM],AC50 [10] [µM],AC50 [11] [µM],AC50 [12] [µM],AC50 [13] [µM]
COc1ccc(-c2ccc3cc(C(=O)O)ccc3c2)cc1C12CC3CC(CC(C3)C1)C2,> 30,> 30,> 30,> 30,> 30,> 30,> 30,> 30,> 30,> 30,> 30,> 30,> 30,> 30,> 30,> 30,> 30
C=CCN1CCCC1CNC(=O)c1cc(S(N)(=O)=O)cc(OC)c1OC (stereo not given) [VERALIPRIDE],> 30,> 30,> 30,26,> 30,> 30,> 30,> 30,> 30,> 10,> 30,> 30,> 30,> 30,> 30,> 30,25
COC(=O)C1=C(C)NC(C)=C(C(=O)OC(C)(C)CN(C)CCC(c2ccccc2)c2ccccc2)C1c1cccc([N+](=O)[O-])c1 (stereo not given) [LERCANIDIPINE],> 30,> 30,> 30,> 30,> 30,> 30,> 30,> 30,> 30,25,> 30,> 30,6.4,> 30,> 30,> 30,> 30
COC(=O)C1=C(C)NC(C)=C(C(=O)OC2CCCN(Cc3ccccc3)C2)C1c1cccc([N+](=O)[O-])c1 (stereo not given) [BENIDIPINE],26,> 30,> 30,> 30,> 30,> 30,> 30,> 30,> 30,4.2,> 30,> 30,27,> 30,> 30,> 30,> 30
CCOC(=O)[N-]c1cn(N2CCOCC2)n[o+]1 [MOLSIDOMINE],> 30,> 30,> 30,> 30,> 30,> 30,> 30,> 10,> 30,> 30,> 30,> 30,> 30,> 30,> 30,> 30,> 30
OC(CNCC(O)C1CCc2cc(F)ccc2O1)C1CCc2cc(F)ccc2O1 (stereo not given) [NEBIVOLOL],4.6,> 30,3.3,8.1,> 30,> 30,> 30,> 30,> 30,> 30,> 10,> 30,> 30,> 30,1.6,> 30,0.75
CC(C)OC(=O)CCC/C=C\C[C@@H]1[C@@H](CC[C@@H](O)CCc2ccccc2)[C@H](O)C[C@@H]1O [LATANOPROST],> 30,> 30,> 30,> 30,> 30,> 30,> 30,> 30,> 30,> 30,> 30,> 30,> 30,> 30,> 30,> 30,> 30
Nc1nc(/C(=C/CC(=O)O)C(=O)N[C@@H]2C(=O)N3C(C(=O)O)=CCS[C@H]23)cs1 [CEFTIBUTEN],> 30,> 30,> 30,> 30,> 30,> 30,> 30,> 30,> 30,> 30,> 30,> 30,> 30,> 30,> 30,> 30,> 30
COc1ccc(CCN(C)CCCC(C#N)(c2cc(OC)c(OC)c(OC)c2)C(C)C)cc1OC (stereo not given) [GALLOPAMIL],> 30,> 30,> 30,25,> 30,> 30,> 30,> 30,> 30,> 30,> 30,> 30,> 30,> 30,> 30,> 30,3
CC(C)=CCC/C(C)=C/C=C/C(C)=C/C=C/C(C)=C/C=C/C=C(C)/C=C/C=C(C)/C=C/C=C(\C)CCC=C(C)C [LYCOPENE],> 30,> 30,> 30,> 30,> 30,> 30,> 30,> 30,> 30,> 30,> 30,> 30,> 30,> 30,> 30,> 30,> 30
